One assay has as its system Staphylococcus aureus. To be noted: S. aureus, 1000 ppm acetic acid aqueous solution. How it is done: (§1) In this example, the antimicrobial activity of acetic acid against various bacteria was evaluated. As a control, a saline was used. The antimicrobial activity was evaluated on the basis of the number of colonies of the bacterium on the solid culture medium.
(§2) To each of an acetic acid aqueous solution and a saline, various species of bacteria were added to a concentration of 1×10^5 cells/mL to obtain bacterial suspensions. Each 100 μL was taken from the obtained bacterial suspensions, and these were taken as samples at day 0 of culture. The remaining bacterial suspensions were cultured for 7 days at 37° C. for E. coli and S. aureus and at 25° C. for P. aeruginosa, and each 100 μL was taken from the obtained bacterial suspensions as samples at day 7 of culture. Each 100 μL of the sample was coated on a heart infusion agar culture medium, and cultured at the respective culture temperatures. The culture time was 20 hours for E. coli, 24 hours for S. aureus and 48 hours for P. aeruginosa. After culturing, the number of colonies on the agar culture medium was counted, and the bacterial number (CFU/mL) was calculated.

Another assay relates to Escherichia coli. As to conditions: E. coli, 1000 ppm acetic acid aqueous solution. How it is done:
as §1, §2

The test system of a further assay is Pseudomonas aeruginosa. As to conditions: P. aeruginosa, 1000 ppm acetic acid aqueous solution. How it is done:
as §1, §2

Results on one compound are retold here after US20160363588A1, “URINE SAMPLE ANALYSIS METHOD AND REAGENT KIT FOR URINE SAMPLE ANALYSIS” (SYSMEX CORPORATION, priority 2014, published 2016).

With `CC(=O)O` [acetic acid], the “Bacterial number At day 7” value in the assay on Staphylococcus aureus (cultured 7 days at 37° C.), in the assay with Escherichia coli (cultured 7 days at 37° C.) and in the assay with Pseudomonas aeruginosa (cultured 7 days at 25° C.) was 0 CFU/mL in each case. The “proliferation of bacteria in the solution” value in the assay with Staphylococcus aureus (culturing for 7 days), in the assay on Escherichia coli (culturing for 7 days) and with Pseudomonas aeruginosa (culturing for 7 days) was “cannot be proliferated” throughout. The “Bacterial number At day 0” value in the assay on Staphylococcus aureus (day 0 of culture), with Escherichia coli (day 0 of culture) and in the assay with Pseudomonas aeruginosa (day 0 of culture) was 1000 CFU/mL throughout.
